Assay results published in the NIST ThermoML archive (doi:10.1021/acs.jced.7b00717).

Legend:
[1] = refractive index (other wavelength) (dimensionless); xn = mol fraction of the nth substance listed; conditions: Liquid, Wavelength=532 nm
[2] = xn = mol fraction of the nth substance listed; conditions: Liquid, dynamic ligfht scattering

OCC(O)CO [glycerol] + O
[1]
Conditions	refractive index
295.65 K, Standard Abbe refractometry, x1 = 0.299	1.422
296.15 K, beam displacement method, x1 = 0.699	1.461
314.15 K, Standard Abbe refractometry, x1 = 0.299	1.42
322.99 K, beam displacement method, x1 = 0.5	1.436
323.15 K, beam displacement method, x1 = 0.299	1.417
331.65 K, Standard Abbe refractometry, x1 = 0.299	1.415
347.96 K, beam displacement method, x1 = 0.5	1.43
348.15 K, beam displacement method, x1 = 0.299	1.411
348.45 K, beam displacement method, x1 = 0.699	1.445
373.05 K, beam displacement method, x1 = 0.699	1.438
373.16 K, beam displacement method, x1 = 0.299	1.403
373.23 K, beam displacement method, x1 = 0.5	1.423
398.11 K, beam displacement method, x1 = 0.5	1.417
398.15 K, beam displacement method, x1 = 0.299	1.396
398.25 K, beam displacement method, x1 = 0.699	1.431
421.85 K, beam displacement method, x1 = 0.699	1.424
423.15 K, beam displacement method, x1 = 0.5	1.409

[2]
Conditions	binary diffusion coefficient [m2/s]
322.99 K, x1 = 0.5	2.54e-10
323.07 K, x1 = 0.699	1.4e-10
323.15 K, x1 = 0.299	5.6e-10
347.98 K, x1 = 0.5	5.69e-10
348.19 K, x1 = 0.299	1.04e-09
351.63 K, x1 = 0.699	3.69e-10
372.92 K, x1 = 0.699	6.93e-10
373.17 K, x1 = 0.5	1.04e-09
373.3 K, x1 = 0.299	1.73e-09
397.7 K, x1 = 0.699	1.45e-09
398.05 K, x1 = 0.299	2.84e-09
398.12 K, x1 = 0.5	1.9e-09
422.61 K, x1 = 0.299	4.12e-09
423.15 K, x1 = 0.5	2.87e-09
448.21 K, x1 = 0.5	4.8e-09
